From patent US20130156845A1, “LIPID FORMULATED SINGLE STRANDED RNA” (ALNYLAM PHARMACEUTICALS, INC., priority 2010, published 2013)
Read-outs that look alike come from different tables or passages of the source. Strand notation (5' to 3'): a small letter for the sugar, then the base; units joined by * are phosphorothioate-linked, units joined directly phosphodiester-linked; [ ] holds rarer units or linkages, { } end groups; capitals alone tell only the bases. [FEt-N] = nucleoside with 2'-OCH2CH2F (FEt) sugar (N: the base); [tcDNA-N] = tricyclo-DNA nucleoside (N: the base); [FEt] = thymidine with 2'-OCH2CH2F (FEt) sugar; e = 2'-O-(2-methoxyethyl) (MOE); m = 2'-O-methyl; r = 2'-OH (RNA); {P} = phosphate; f = 2'-fluoro

Assays:
PTEN = PTEN mRNA reduction in HeLa cells, dose response (Example 72); assay type: cell-based, human; conditions: percent inhibition of PTEN mRNA, 0.167-50 nM
Experimental: In accordance with the present disclosure, oligomeric compounds were synthesized and tested for their ability to reduce PTEN expression over a range of doses. Human HeLa cells were treated with the following oligomeric compounds. A dose comparison was evaluated with dose concentrations of 0.167, 0.5, 1.5, 5, 15 and 50 nM using methods described herein. Expression levels of PTEN were determined using real-time PCR and normalized to RIBOGREEN™ using methods described herein. The percent inhibition of PTEN mRNA was determined and the resulting dose-response curves were used to determine the IC50. The IC50s are listed below.

[1] = Phosphate stability in mouse serum (Example 68)
Experimental: Single-stranded oligomeric compounds were tested for stability in mouse serum.

human PTEN = test: PTEN expression in HeLa cells, ssRNAs vs siRNAs (Example 62); assay type: cell-based
Experimental: A series of 5′ and 2′ bis-substituted modified oligomeric compounds were prepared as single strand RNAs (ssRNAs). The antisense (AS) strands listed below were designed to target human PTEN, and each was also assayed as part of a duplex with the same sense strand (ISIS 341401, shown below) for their ability to reduce PTEN expression levels. HeLa cells were treated with the single stranded or double stranded oligomeric compounds created with the antisense compounds shown below using methods described herein. The IC50's were calculated using the linear regression equation generated by plotting the normalized mRNA levels to the log of the concentrations used.

[2] = antisense strand duplexed with sense strand ISIS 341401, PTEN mRNA, read-out: EC50 (nM) siRNA
[3] = full compound with intact phosphorous moiety, first table

P-UmUfGmUfCmUfCmUfGmGfUmCfCmUfUmAfCmUfUmAeAe (antisense UUGUCUCUGGUCCUUACUUAA; sugars from the 5' end mfmfmfmfmfmfmfmfmfmee, 5' {P}, backbone not given here) [ISIS 414291, modified ssRNA targeting PTEN]
IC50 (PTEN; listed as 414291): 13 nM

P-TUfGfUfCfUfCfUfGfGfUfCfCfUfUfAfCfUfUfAeAe (antisense TUGUCUCUGGUCCUUACUUAA; 5'-phosphate, chemical modifications, chemistry not fully specified) [ISIS 418131, modified ssRNA targeting PTEN]
IC50 (PTEN): 3.4 nM

P-TefUfGfUfCfUfCfUfGfGfUfCfCfUfUfAfCfUfUfAeAe (antisense {P}-[FEt-T]fUfGfUfCfUfCfUfGfGfUfCfCfU*fU*fA*fC*fU*fU*eA*eA) [ISIS 418033, modified ssRNA targeting PTEN]
IC50 (PTEN): 11 nM

P-UmUfGmUfCmUfCmUfGmGfUmCfCmUfUmAfCmUfUmAeAe (antisense UUGUCUCUGGUCCUUACUUAA; sugars from the 5' end mfmfmfmfmfmfmfmfmfmee, 5' {P}, backbone not given here) [ISIS 416598, modified ssRNA targeting PTEN]
IC50 (PTEN; listed as 416598): 6.8 nM

P-TdUfGfUfCfUfCfUfGfGfUfCfCfUfUfAfCfUfUfAeAe (antisense TUGUCUCUGGUCCUUACUUAA; chemistry not fully specified) [ISIS 435394, modified ssRNA targeting PTEN]
IC50 (PTEN): 18.1 nM

5′-Po-ThUfoGfoUfoCfoUfoCfoUfoGfoGfoUfoCfoCfoUfsUfsAfsCfsUfsUfsAesAe (antisense TUGUCUCUGGUCCUUACUUAA; 5'-phosphate, 2'-F, MOE modifications, chemistry not fully specified) [ISIS 440141]
T1/2 full length ([1]; four compounds tested separately, second table): 0.3 h

UUGUCUCUGGUCCUUACUU (rUrUrGrUrCrUrCrUrGrGrUrC*rC*rU*rU*rA*rC*rU*rU) [ISIS 359455, unmodified RNA antisense strand targeting PTEN]
EC50 (human PTEN; [2]): 0.3 nM

5′-Po-UiUfoGfoUfoCfoUfoCfoUfoGfoGfoUfoCfoCfoUfsUfsAfsCfsUfsUfsAesAe (antisense UUGUCUCUGGUCCUUACUUAA; 5'-phosphate, N-methoxyamino BNA, 2'-F, MOE modifications, chemistry not fully specified) [ISIS 418129]
T1/2 full length [1, 3]: 5.4 h

P-TdUfGmUfCmUfCmUfGmGfUmCfCfUfUfAfCfUfUfAeAe (antisense TUGUCUCUGGUCCUUACUUAA; 5'-phosphate, chemical modifications, chemistry not fully specified) [ISIS 435399, modified ssRNA targeting PTEN]
IC50 (PTEN): 2 nM

P-TefUfGfUfCfUfCfUfGfGfUfCfCfUfUfAfCfUfUfAeAe (antisense TUGUCUCUGGUCCUUACUUAA; sugars from the 5' end [FEt]1 f18 e2, 5' {P}, backbone not given here; further chemistry not fully specified) [ISIS 418032, modified ssRNA targeting PTEN]
IC50 (PTEN): 2.9 nM

P-UfUfGfUfCfUfCfUfGfGfUfCfCfUfUfAfCfUfUf (antisense {P}-fUfUfGfUfCfUfCfUfGfGfUfC*fC*fU*fU*fA*fC*fU*fU) [ISIS 386187, modified ssRNA targeting PTEN]
EC50 (human PTEN; [2]): 0.3 nM
EC50 (human PTEN; single stranded antisense compound, PTEN mRNA, read-out: EC50 (nM) ssRNA): 15 nM

5′-Po-TjUfoGfoUfoCfoUfoCfoUfoGfoGfoUfoCfoCfoUfsUfsAfsCfsUfsUfsAesAe (antisense {P}-[tcDNA-T]fUfGfUfCfUfCfUfGfGfUfCfCfU*fU*fA*fC*fU*fU*eA*eA) [ISIS 418130]
T1/2 full length [1, 3]: 5.3 h

Pz-^meUmUfGmUfCmUfCmUfGmGfUmCfCmUfUmAfCmUfUmAeAe (antisense UUGUCUCUGGUCCUUACUUAA; 5'-difluoromethylenephosphonate, 2'-F/2'-OMe alternating, MOE 3' end, first nucleoside modification undefined, further chemistry not given here) [ISIS 462606, modified ssRNA targeting PTEN, 5′-difluoromethylenephosphonate]
EC50 (human PTEN; antisense strand duplexed with sense strand ISIS 341401, PTEN mRNA, listed as 462606 (AS), read-out: EC50 (nM) siRNA): 0.4 nM

P-UeUfGfUfCfUfCfUfGfGfUfCfCfUfUfAfCfUfUfAeAe (antisense UUGUCUCUGGUCCUUACUUAA; sugars from the 5' end e1 f18 e2, 5' {P}, backbone and T or U not given here) [ISIS 418030, modified ssRNA targeting PTEN]
IC50 (PTEN): 8.5 nM

Pz-^meUmUfGmUfCmUfCmUfGmGfUmCfCmUfUmAfCmUfUmAeAe (antisense UUGUCUCUGGUCCUUACUUAA; 5'-difluoromethylenephosphonate, 2'-F/2'-OMe alternating, MOE 3' end, first nucleoside modification undefined, further chemistry not given here) [ISIS 462607, modified ssRNA targeting PTEN, 5′-difluoromethylenephosphonate]
EC50 (human PTEN; antisense strand duplexed with sense strand ISIS 341401, PTEN mRNA, listed as 462607 (AS), read-out: EC50 (nM) siRNA): 1 nM

5′-Ps-UdUfoGfoUfoCfoUfoCfoUfoGfoGfoUfoCfoCfoUfsUfsAfsCfsUfsUf (antisense UUGUCUCUGGUCCUUACUU; 5'-thiophosphate, 2'-F modifications, chemistry not fully specified) [ISIS 430601]
T1/2 full length [1, 3]: 3.7 h

Pz-^meUhUfGmUfCmUfCmUfGmGfUmCfCmUfUmAfCmUfUmAeAe (antisense UUGUCUCUGGUCCUUACUUAA; 5'-difluoromethylenephosphonate, 2'-F/2'-OMe alternating, MOE 3' end, first nucleoside modification undefined, further chemistry not given here) [ISIS 460646, modified ssRNA targeting PTEN, 5′-difluoromethylenephosphonate]
EC50 (human PTEN; [2]): 0.8 nM

P-TeUfGfUfCfUfCfUfGfGfUfCfCfUfUfAfCfUfUfAeAe (antisense TUGUCUCUGGUCCUUACUUAA; sugars from the 5' end e1 f18 e2, 5' {P}, backbone not given here) [ISIS 418031, modified ssRNA targeting PTEN]
IC50 (PTEN): 3.9 nM
